In patent US10167279B2 (NOVARTIS AG, priority 2014, dated 2019):

Key:
b-Raf (V600E) = b-Raf (V600E) (Homo sapiens (Human), UniProt P15056, V600E); test: In vitro Raf activity determination (Alpha Screen, phospho-MEK), b-Raf (V600E); assay type: biochemical; conditions: ATP 10 μM, 60 min pre-incubation, 3 hours reaction
Excerpt: The activity of a compound according to the present invention can be assessed by well-known in vitro & in vivo methods. Raf inhibition data provided herein was obtained using the following procedures.
Sf9 cells co-expressing both proteins were lysed and subjected to immobilized nickel chromatography and eluted with Imidazole. A second column (StrepII binding column) was used and eluted with desthiobiotin. Protein Tags were removed using Prescission enzyme and the protein was further purified using a flowthrough step to remove tags.
Full length MEK1 with an inactivating K97R ATP binding site mutation is utilized as a RAF substrate. The MEK1 cDNA was subcloned with an N-terminal (his)6 tag into a vector for E. Coli expression. The MEK1 substrate was purified from E. Coli lysate by nickel affinity chromatography followed by anion exchange. The final MEK1 preparation was biotinylated (Pierce EZ-Link Sulfo-NHS-LC-Biotin) and concentrated.
The plate was incubated for 60 minutes at room temperature. […] The additions were carried out under dark conditions to protect the detection beads from light. A lid was placed on top of the plate and incubated for 1 hour at room temperature, after which the luminescence was read on a PerkinElmer Envision instrument.

C-Raf FL = C-Raf FL (Homo sapiens (Human), UniProt P04049, Y340E/Y341E); test: In vitro Raf activity determination (Alpha Screen, phospho-MEK), C-Raf FL (full length, Y340E/Y341E); assay type: biochemical; conditions: ATP 1 μM; 60 min pre-incubation; 1 hour reaction; column head does not say FL or TR
Sequence of C-Raf FL (P04049 whole entry Y340E/Y341E): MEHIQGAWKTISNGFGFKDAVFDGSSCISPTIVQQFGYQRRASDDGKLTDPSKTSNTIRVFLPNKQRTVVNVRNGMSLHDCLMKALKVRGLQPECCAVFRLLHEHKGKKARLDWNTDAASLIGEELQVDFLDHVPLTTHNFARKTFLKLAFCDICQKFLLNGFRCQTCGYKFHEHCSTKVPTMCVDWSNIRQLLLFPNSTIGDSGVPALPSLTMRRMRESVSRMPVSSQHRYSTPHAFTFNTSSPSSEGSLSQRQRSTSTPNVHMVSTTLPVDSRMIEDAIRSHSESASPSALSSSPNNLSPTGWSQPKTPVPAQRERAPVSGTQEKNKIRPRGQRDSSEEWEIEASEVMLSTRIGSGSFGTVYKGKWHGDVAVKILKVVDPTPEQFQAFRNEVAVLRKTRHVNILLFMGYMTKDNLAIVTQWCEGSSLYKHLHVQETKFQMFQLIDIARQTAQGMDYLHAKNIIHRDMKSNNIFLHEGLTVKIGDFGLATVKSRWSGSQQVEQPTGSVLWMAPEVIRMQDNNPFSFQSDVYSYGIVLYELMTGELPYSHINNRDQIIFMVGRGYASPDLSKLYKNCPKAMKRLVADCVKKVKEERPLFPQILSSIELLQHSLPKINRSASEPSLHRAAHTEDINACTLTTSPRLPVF
Sequence of C-Raf FL (P63104 whole entry partner): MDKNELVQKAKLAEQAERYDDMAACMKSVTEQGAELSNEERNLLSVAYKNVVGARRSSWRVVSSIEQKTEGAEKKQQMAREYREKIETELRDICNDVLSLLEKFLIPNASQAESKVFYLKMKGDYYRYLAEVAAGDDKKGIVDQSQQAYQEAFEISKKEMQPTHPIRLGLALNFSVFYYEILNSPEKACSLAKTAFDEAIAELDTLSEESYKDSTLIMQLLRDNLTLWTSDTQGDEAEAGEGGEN
In short: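 Read-out is AlphaScreen luminescence using rabbit anti-p-MEK with protein A beads after EDTA stop, with IC50 fitted by non-linear regression. Reaction: Sf9-derived C-Raf plus biotinylated E. coli MEK1 K97R substrate, pH 7.5 Tris/MgCl2/DTT buffer, compound preincubated 60 min at room temperature.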

Sequence of b-Raf (V600E) (P15056 whole entry V600E): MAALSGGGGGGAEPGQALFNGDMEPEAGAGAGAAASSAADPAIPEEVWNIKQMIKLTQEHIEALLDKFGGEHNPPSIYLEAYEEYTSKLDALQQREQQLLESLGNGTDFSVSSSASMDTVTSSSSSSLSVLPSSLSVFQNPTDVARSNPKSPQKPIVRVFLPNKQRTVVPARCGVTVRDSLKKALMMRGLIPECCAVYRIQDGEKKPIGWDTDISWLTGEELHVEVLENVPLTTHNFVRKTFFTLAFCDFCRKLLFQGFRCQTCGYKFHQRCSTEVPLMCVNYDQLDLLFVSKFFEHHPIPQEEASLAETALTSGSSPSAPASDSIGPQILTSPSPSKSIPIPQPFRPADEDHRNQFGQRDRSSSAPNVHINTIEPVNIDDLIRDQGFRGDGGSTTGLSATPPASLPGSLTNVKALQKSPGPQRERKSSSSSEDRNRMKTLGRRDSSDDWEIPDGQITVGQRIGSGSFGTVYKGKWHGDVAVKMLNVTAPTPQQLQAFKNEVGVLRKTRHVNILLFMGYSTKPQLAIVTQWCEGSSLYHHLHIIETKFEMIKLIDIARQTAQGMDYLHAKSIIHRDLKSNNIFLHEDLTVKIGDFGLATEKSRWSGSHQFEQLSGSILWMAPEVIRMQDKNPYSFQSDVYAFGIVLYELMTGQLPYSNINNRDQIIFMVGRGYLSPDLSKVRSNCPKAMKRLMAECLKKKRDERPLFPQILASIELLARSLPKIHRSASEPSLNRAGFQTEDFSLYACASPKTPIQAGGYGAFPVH

SMILES | IC50 (b-Raf (V600E)) [nM] | IC50 (C-Raf FL) [nM]
COc1ncc(-c2cc(NC(=O)c3cc(C(C)(C)N)cc(C(F)(F)F)c3)cnc2C)cc1C1(C#N)COC1 [Example 114, 3-(2-aminopropan-2-yl)-N-(5′-(3-cyanooxetan-3-yl)-6′-methoxy-2-methyl-[3,3′-bipyridin]-5-yl)-5-(trifluoromethyl)benzamide] | 17.5 | 3.26
COc1ncc(-c2cc(NC(=O)c3cc(C(C)(C)C#N)ccn3)ccc2C)cc1C1(F)COC1 [Example 87] | 3.56 | 0.622
Cc1ncc(NC(=O)c2ccnc(C(C)(F)F)c2)cc1-c1cnc(OCCO)c(C2(F)COC2)c1 [Example 39, 7-(1,1-difluoroethyl)-N-(5′-(3-fluorooxetan-3-yl)-6′-(2-hydroxyethoxy)-2-methyl-[3,3′-bipyridin]-5-yl)isonotinamide] | 5.9 | 1.17
CCOc1nnc(-c2cc(NC(=O)c3ccnc(C(C)(F)F)c3)cnc2C)cc1C1(C)COC1 [Example 127, 2-(1,1-difluoroethyl)-N-(5-(6-ethoxy-5-(3-methyloxetan-3-yl)pyridazin-3-yl)-6-methylpyridin-3-yl)isonicotinamide] | 3.15 | 0.987
COc1ncc(-c2cc(NC(=O)c3ccnc(C(C)(C)F)c3)cnc2C)cc1C1(C(F)F)COC1 [Example 42, N-(5′-(3-(difluoromethyl)oxetan-3-yl)-6′-methoxy-2-methyl-[3,3′-bipyridin]-5-yl)-2-(2-fluoropropan-2-yl)isonicotinamide] | 1.42 | 0.243
COc1ncc(-c2cc(NC(=O)c3cc(C(F)(F)F)ccn3)cnc2C)cc1C1(F)COC1 [Example 83, N-(5′-(3-fluorooxetan-3-yl)-6′-methoxy-2-methyl-[3,3′-bipyridin]-5-yl)-4-(trifluoromethyl)picolin-amide] | 0.0593 | 0.0136

Now from value to molecule:

IC50 (b-Raf (V600E)) [nM] | IC50 (C-Raf FL) [nM] | SMILES
4.84 | 0.729 | Cc1ncc(NC(=O)c2ccnc(C(F)(F)F)c2)cc1-c1cnc(OCCO)c(C2(F)COC2)c1 [Example 38, N-(5′-(3-fluorooxetan-3-yl)-6′-(2-hydroxyethoxy)-2-methyl-[3,3′-bipyridin]-5-yl)-2-(trifluoromethyl)isonicotin-amide]
49.3 | 7.29 | COc1ncc(-c2cc(C(=O)Nc3ccnc(S(C)(=O)=O)c3)ccc2C)cc1C1(O)COC1 [Example 145, 3-(5-(3-hydroxyoxetan-3-yl)-6-methoxypyridin-3-yl)-4-methyl-N-(2-(methylsulfonyl)pyridin-4-yl)benzamide]
22.8 | 3.93 | COc1ncc(-c2cc(NC(=O)c3ccnc(C(C)(C)F)c3)cnc2C)cc1C1(O)COC1 [Example 76, 2-(2-fluoropropan-2-yl)-N-(5′-(3-hydroxyoxetan-3-yl)-6′-methoxy-2-methyl-[3,3′-bipyridin]-5-yl)isonicotinamide]
1.3 | 0.229 | COc1ncc(-c2cc(NC(=O)c3ccnc(C(C)(C)C#N)c3)ccc2C)cc1C1(F)COC1 [Example 30, 2-(2-cyanopropan-2-yl)-N-(3-(5-(3-fluorooxetan-3-yl)-6-methoxypyridin-3-yl)-4-methylphenyl)isonicotin-amide]
0.469 | 0.118 | COc1ncc(-c2cc(NC(=O)c3cccc(C(F)(F)F)c3)cnc2C)cc1C1(CF)COC1 [Example 49, N-(5′-(3-(fluoromethyl)oxetan-3-yl)-6′-methoxy-2-methyl-[3,3′-bipyridin]-5-yl)-3-(trifluoromethyl)benzamide]
2.84 | 0.351 | COc1ncc(-c2cc(NC(=O)c3ccnc(C(F)(F)F)c3)ccc2C)cc1C1(O)COC1 [Example 71, N-(3-(5-(3-hydroxyoxetan-3-yl)-6-methoxypyridin-3-yl)-4-methylphenyl)-2-(trifluoromethyl)isonicotin-amide]
2.2 | 0.333 | COc1ncc(-c2cc(NC(=O)c3cc(C(C)(F)F)ccn3)ccc2C)cc1C1(O)COC1 [Example 92, 4-(1,1-difluoroethyl)-N-(3-(5-(3-hydroxyoxetan-3-yl)-6-methoxypyridin-3-yl)-4-methylphenyl)picolinamide]
